From patent US6710032B1, “In situ formation of CLA” (University of Maryland, priority 1998, dated 2004)

What was measured:
C57/B1/6J mice = assay: Example 6: mouse milk fat and milk/fecal fatty acids when fed 18:1 isomer diets; type: in vivo; conditions: for Milk fat on day 10 versus day 6 of lactation: isomer about 25% of dietary fat, fed four days, creamatocrit; for Level of the test isomer in milk, % of the fat: day 10, fed the isomer diet
From the text: C57/B1/6J mice fed a control diet (10 wt % fat) were switched to one of four isomer diets at day 6 of lactation after milk collection. Approximately 25% of the dietary fat (5 caloric %) during the treatment period was replaced with one of four specific isomers of oleic acid, either cis-9; cis-11; trans-9 or trans-11, other diet components were identical. The mice consumed these diets ad libitum for four days and were milked again on day 10 of lactation. Milk and fecal fatty acid composition was analyzed as fatty acid methyl esters by GC. Specific isomers were identified by relative retention times. Milk fat percentage was determined by the creamatocrit method and differences between day 6 and day 10 fat percentages were evaluated by a paired t-test.
A lactating mouse is milked after injection of oxytocin(0.2 ml of a 1 IU/ml solution) immediately prior to milking. Milking is accomplished by creating a suction through tube 26 and inserting the funnel end 28 or tube 26 onto the teat of a lactating mouse in the upside-down position. As milk is collected into the funnel, a small capillary tube (i.e. the same as that used to collect human blood samples) is manually positioned within the funnel to collect milk by capillary action. Failure to promptly collect the milk will expose the milk to evaporation thus increasing fat content of the sample.

cows = assay: Ingestion of C18 trans 11 fats in cows, milk fat levels; conditions: in vivo

| Level of the test isomer in milk, % of the fat (C57/B1/6J mice) | SMILES | Milk fat on day 10 versus day 6 of lactation (C57/B1/6J mice) | Milk fat on day 10 versus day 6 of lactation (C57/B1/6J mice; listed as C18:1 t-11) | Milk fat levels in cows (cows) |
| --- | --- | --- | --- | --- |
| – | CCCCCCCC/C=C\CCCCCCCC(=O)O [Cis-9, cis-9 18:1 fatty acid] | identical fat values on days 6 and 10 | – | – |
| 10% | CCCCCC/C=C\CCCCCCCCCC(=O)O [cis-11, cis-11 18:1 fatty acid] | not statistically different | – | – |
| 5.8% | CCCCCCCC/C=C/CCCCCCCC(=O)O [trans-9, trans-9 18:1 fatty acid] | statistically lower | – | – |
| 3% | CCCCCC/C=C/CCCCCCCCCC(=O)O [trans-11, trans-11 18:1 fatty acid] | not statistically different | does not reduce milk fat | do not reduce milk fat levels |
